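These data come from cells grown in 96-well plates and exposed to compound for 48 hours at five concentrations. Definition used: TGI = concentration required for complete inhibition of growth.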
Assays:
Assay in all cases: NCI anticancer screen, dose series, 48 h
KM20L2 colon = test system: KM20L2 colon
NCI-H460 lung = test system: NCI-H460 lung
SNB-19 CNS = test system: SNB-19 CNS
LXFL 529 NSCLC = test system: LXFL 529 NSCLC
HOP-18 NSCLC = test system: HOP-18 NSCLC
ACHN renal = test system: ACHN renal
RXF-631 renal = test system: RXF-631 renal
DMS 114 small cell lung = test system: DMS 114 small cell lung
NCI-H23 lung = test system: NCI-H23 lung
NCI-H522 lung = test system: NCI-H522 lung
M19-MEL melanoma = test system: M19-MEL melanoma
CCRF-CEM leukemia = test system: CCRF-CEM leukemia
HOP-92 NSCLC = test system: HOP-92 NSCLC
KM12 colon = test system: KM12 colon
SNB-75 CNS = test system: SNB-75 CNS
HOP-62 NSCLC = test system: HOP-62 NSCLC
OVCAR-4 ovarian = test system: OVCAR-4 ovarian
MOLT-4 leukemia = test system: MOLT-4 leukemia
SK-OV-3 ovarian = test system: SK-OV-3 ovarian
M14 melanoma = test system: M14 melanoma
TK-10 renal = test system: TK-10 renal
SNB-78 CNS = test system: SNB-78 CNS
HCC-2998 colon = test system: HCC-2998 colon
RXF 393 renal = test system: RXF 393 renal
LOX IMVI melanoma = test system: LOX IMVI melanoma
HCT-116 colon = test system: HCT-116 colon
UACC-62 melanoma = test system: UACC-62 melanoma
COLO 205 colon = test system: COLO 205 colon
SW-620 colon = test system: SW-620 colon
DMS 273 small cell lung = test system: DMS 273 small cell lung
SF-539 CNS = test system: SF-539 CNS
SK-MEL-28 melanoma = test system: SK-MEL-28 melanoma
UO-31 renal = test system: UO-31 renal
HT29 colon = test system: HT29 colon
OVCAR-8 ovarian = test system: OVCAR-8 ovarian
RPMI-8226 leukemia = test system: RPMI-8226 leukemia
XF 498 CNS = test system: XF 498 CNS
K-562 leukemia = test system: K-562 leukemia
IGROV1 ovarian = test system: IGROV1 ovarian
OVCAR-3 ovarian = test system: OVCAR-3 ovarian
MALME-3M melanoma = test system: MALME-3M melanoma
A498 renal = test system: A498 renal
SK-MEL-5 melanoma = test system: SK-MEL-5 melanoma
SK-MEL-2 melanoma = test system: SK-MEL-2 melanoma
SN12C renal = test system: SN12C renal
U251 CNS = test system: U251 CNS
EKVX NSCLC = test system: EKVX NSCLC
UACC-257 melanoma = test system: UACC-257 melanoma
786-0 renal = test system: 786-0 renal
A549 NSCLC = test system: A549 NSCLC
HCT-15 colon = test system: HCT-15 colon
OVCAR-5 ovarian = test system: OVCAR-5 ovarian
DLD-1 colon = test system: DLD-1 colon
CAKI-1 renal = test system: CAKI-1 renal
SF-268 CNS = test system: SF-268 CNS

## O=C(N/C(=C\c1c(O)ccc2ccccc12)c1nc2ccccc2[nH]1)c1ccccc1
KM20L2 colon
  TGI: > 100 µM
NCI-H460 lung
  TGI: > 100 µM
SNB-19 CNS
  TGI: > 100 µM
LXFL 529 NSCLC
  TGI: > 100 µM
HOP-18 NSCLC
  TGI: > 100 µM
ACHN renal
  TGI: > 100 µM
RXF-631 renal
  TGI: > 100 µM
DMS 114 small cell lung
  TGI: > 100 µM
NCI-H23 lung
  TGI: > 100 µM
NCI-H522 lung
  TGI: > 100 µM
M19-MEL melanoma
  TGI: > 100 µM
CCRF-CEM leukemia
  TGI: > 100 µM
HOP-92 NSCLC
  TGI: > 100 µM
KM12 colon
  TGI: > 100 µM
SNB-75 CNS
  TGI: 45.6 µM
HOP-62 NSCLC
  TGI: 76.1 µM
OVCAR-4 ovarian
  TGI: > 100 µM
MOLT-4 leukemia
  TGI: > 100 µM
SK-OV-3 ovarian
  TGI: > 100 µM
M14 melanoma
  TGI: > 100 µM
TK-10 renal
  TGI: > 100 µM
SNB-78 CNS
  TGI: > 100 µM
HCC-2998 colon
  TGI: > 100 µM
RXF 393 renal
  TGI: 47.7 µM
LOX IMVI melanoma
  TGI: > 100 µM
HCT-116 colon
  TGI: > 100 µM
UACC-62 melanoma
  TGI: > 100 µM
COLO 205 colon
  TGI: > 100 µM
SW-620 colon
  TGI: > 100 µM
DMS 273 small cell lung
  TGI: > 100 µM
SF-539 CNS
  TGI: > 100 µM
SK-MEL-28 melanoma
  TGI: > 100 µM
UO-31 renal
  TGI: > 100 µM
HT29 colon
  TGI: > 100 µM
OVCAR-8 ovarian
  TGI: > 100 µM
RPMI-8226 leukemia
  TGI: > 100 µM
XF 498 CNS
  TGI: > 100 µM
K-562 leukemia
  TGI: > 100 µM
IGROV1 ovarian
  TGI: > 100 µM
OVCAR-3 ovarian
  TGI: > 100 µM
MALME-3M melanoma
  TGI: > 100 µM
A498 renal
  TGI: > 100 µM
SK-MEL-5 melanoma
  TGI: > 100 µM
SK-MEL-2 melanoma
  TGI: > 100 µM
SN12C renal
  TGI: > 100 µM
U251 CNS
  TGI: > 100 µM
EKVX NSCLC
  TGI: > 100 µM
UACC-257 melanoma
  TGI: > 100 µM
786-0 renal
  TGI: > 100 µM
A549 NSCLC
  TGI: > 100 µM
HCT-15 colon
  TGI: > 100 µM
OVCAR-5 ovarian
  TGI: > 100 µM
DLD-1 colon
  TGI: > 100 µM
CAKI-1 renal
  TGI: > 100 µM
SF-268 CNS
  TGI: > 100 µM

— PubChem BioAssay (NCI)
